Here are results for 21 molecules from patent US7208517B1, “Endothelin antagonists” (Abbott Labortories, priority 1994, dated 2007).

In the assay the target is T1, ETA Receptor (Rattus norvegicus, UniProt P26684).
T1 construct: endogenous in cells; host or cells: MMQ rat pituitary cells (membranes)
T1 sequence (P26684 21-426): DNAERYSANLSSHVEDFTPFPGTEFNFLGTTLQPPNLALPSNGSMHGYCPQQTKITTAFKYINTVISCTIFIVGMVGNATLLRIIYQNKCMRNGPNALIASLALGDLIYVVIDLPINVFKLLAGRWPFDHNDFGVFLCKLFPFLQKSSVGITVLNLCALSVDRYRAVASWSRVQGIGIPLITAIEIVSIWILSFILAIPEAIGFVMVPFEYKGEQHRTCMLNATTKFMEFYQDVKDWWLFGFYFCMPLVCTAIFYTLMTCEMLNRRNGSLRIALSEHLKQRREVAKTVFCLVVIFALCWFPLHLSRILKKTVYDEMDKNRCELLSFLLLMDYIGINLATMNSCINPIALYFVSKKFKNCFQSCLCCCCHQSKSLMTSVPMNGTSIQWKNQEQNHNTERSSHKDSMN
The assay can be described thus: [125I]ET-1 binding to membranes from MMQ cells (ETA receptor binding assay, Table 4). The settings on record: test compound at 1 μM; 0.1 nM [125I]ET-1, MMQ cell membranes, 4 hours at 25° C.
In the case of `CCCN(CCN1CC(c2ccc3c(c2)OCO3)C(C(=O)O)C1c1ccc(OC)cc1)S(=O)(=O)c1ccc([N+](=O)[O-])cc1` (stereo not drawn) [Example 298, trans,trans-2-(4-Methoxyphenyl)-4-(1,3-benzodioxol-5-yl)-1-(2-(N-propyl-N-(4-nitrobenzenesulfonyl)amino)ethyl)-pyrrolidine-3-carboxylic acid], the “% Inhibition of ETA at 1 μM” value was found to be 93.3%. For `CCCCN(CCCC)C(=O)CN1CC(c2ccc3c(c2)CCO3)C(C(=O)O)C1c1ccc(C(C)(C)C)cc1` (stereo not drawn) [Example 154, trans,trans-1-(N,N-Di(n-butyl)aminocarbonylmethyl)-2-(4-t-butylphenyl)-4-(5-benzo-2,3-dihydrofuranyl)pyrrolidine-3-carboxylic acid] the value was 80.2%. Regarding `CCCN(CCN1CC(c2ccc3c(c2)OCO3)C(C(=O)O)C1c1ccc(OC)cc1)C(=O)OCC(C)C` (stereo not drawn) [Example 295, trans—trans-2-(4-Methoxyphenyl)-4-(1,3-benzodioxol-5-yl)-1-[2-(N-propyl-N-iso-butoxycarbonylamino)ethyl]-pyrrolidine-3-carboxylic acid], the “% Inhibition of ETA at 1 μM” value amounted to 93.0%. For the molecule `CCCCN(CCCC)C(=O)CN1CC(c2ccc3c(c2)OCO3)C(C(=O)O)C1c1cccc(F)c1` (stereo not drawn) [Example 167, trans,trans-1-(N,N-Di(n-butyl)aminocarbonylmethyl)-2-(3-fluorophenyl)-4-(1,3-benzodioxol-5-yl)pyrrolidine-3-carboxylic acid], the “% Inhibition of ETA at 1 μM” value turned out to be 94.4%. In the case of `CCCN(CC1CC1)C(=O)CN1CC(c2ccc3c(c2)OCO3)C(C(=O)O)C1c1ccc(OC)cc1` (stereo not drawn) [Example 38, trans,trans-2-(4-Methoxyphenyl)-4-(1,3-benzodioxol-5-yl)-1-(N-cyclopropylmethyl-N-propylaminocarbonylmethyl)-pyrrolidine-3-carboxylic acid], the “% Inhibition of ETA at 1 μM” value is reported as 100.0%. For `CCCN(C)C(=O)CN1CC(c2ccc3ccccc3c2)C(C(=O)O)C1c1ccc(OC)cc1` (stereo not drawn) [Example 56, trans,trans-2-(4-Methoxyphenyl)-4-(2-naphthyl)-1-(N-methyl-N-propyl)aminocarbonylmethyl)-pyrrolidine-3-carboxylic acid], the “% Inhibition of ETA at 1 μM” value was determined as 34.3%. For `COc1ccc(C2C(C(=O)O)C(c3ccc4c(c3)OCO4)CN2CC(=O)N2CCCC(C)(C)C2)cc1` (stereo not drawn) [Example 294, trans—trans-2-(4-Methoxyphenyl)-4-(1,3-benzodioxol-5-yl)-1-[3,3-dimethylpiperidinyl-carbonylmethyl]-pyrrolidine-3-carboxylic acid] the value was 77.7%. With `CCCCN(CCCC)C(=O)CN1CC(c2ccc3ccoc3c2)C(C(=O)O)C1c1ccc(OC)cc1` (stereo not drawn) [Example 140, trans,trans-1-(N,N-Di(n-butyl)aminocarbonylmethyl)-2-(4-methoxyphenyl)-4-(6-benzofuranyl)pyrrolidine-3-carboxylic acid], the “% Inhibition of ETA at 1 μM” value was 106.3%. As to “(2R,3R,4S)-(+)-2-(4-Methoxyphenyl)-4-(1,3-benzodioxol-5-yl)-1-(tert-butyloxycarbonyl-aminocarbonylmethyl)-pyrrolidine-3-carboxylic acid [Example 95D]”, the “% Inhibition of ETA at 1 μM” value was determined as 82.1%.

Regarding `COc1ccc(C2C(C(=O)O)C(c3ccc4c(c3)OCO4)CN2Cc2ccc(F)cc2)cc1` (stereo not drawn) [Example 3, trans,trans-2-(4-Methoxyphenyl)-4-(1,3-benzodioxol-5-yl)-1-(4-fluorobenzyl)-pyrrolidine-3-carboxylic acid], the “% Inhibition of ETA at 1 μM” value is recorded as 42.2%. Next, `CCCCN(CCCC)C(=O)CN1CC(c2ccc3c(c2)OCO3)C(C(=O)O)C1c1ccc(CC)cc1` (stereo not drawn) [Example 307, trans—trans-2-(4-Ethylphenyl)-4-(1,3-benzodioxol-5-yl)-1-[N,N-di(n-butyl)aminocarbonylmethyl]-pyrrolidine-3-carboxylic acid]: 92.2%.

Take `CCCN(C)C(=O)CN1CC(c2cccc3occc23)C(C(=O)O)C1c1ccc(OC)cc1` (stereo not drawn) [Example 135B, trans,trans-1-(N-Methyl-N-propylaminocarbonylmethyl)-2-(4-methoxyphenyl)-4-(4-benzofuranyl)pyrrolidine-3-carboxylic acid]: the “% Inhibition of ETA at 1 μM” value was found to be 77.7%. As to `CCCN(C)C(=O)CN1CC(c2ccc3c(c2)CCC3)C(C(=O)O)C1c1ccc(OC)cc1` (stereo not drawn) [Example 142B, trans,trans-1-(N-Methyl-N-propylaminocarbonylmethyl)-2-(4-methoxyphenyl)-4-(5-indanyl)pyrrolidine-3-carboxylic acid], the “% Inhibition of ETA at 1 μM” value is 78.7%. As to `CCCCC(=O)CN1CC(c2ccc3c(c2)OCO3)C(C(=O)O)C1c1ccc(OC)cc1` (stereo not drawn) [Example 72C, trans,trans-2-(4-Methoxyphenyl)-4-(1,3-benzodioxol-5-yl)-1-(valerylmethyl)-pyrrolidine-3-carboxylic acid], the “% Inhibition of ETA at 1 μM” value stood at 80.7%. Turning to `CCCN(CCN1CC(c2ccc3c(c2)OCO3)C(C(=O)O)C1c1ccc(OC)cc1)S(=O)(=O)CC` (stereo not drawn) [Example 128, trans,trans-1-(2-(N-Propyl-N-(ethylsulfonyl)amino)ethyl)-2-(4-methoxyphenyl)-4-(1,3-benzodioxol-5-yl)pyrrolidine-3-carboxylic acid], the “% Inhibition of ETA at 1 μM” value came to 95.4%. For `C#CCN(C)C(=O)CN1CC(c2ccc3c(c2)OCO3)C(C(=O)O)C1c1ccc(OC)cc1` (stereo not drawn) [Example 41, trans,trans-2-(4-Methoxyphenyl)-4-(1,3-benzodioxol-5-yl)-1-(N-methyl-N-(2-propynyl)aminocarbonylmethyl)-pyrrolidine-3-carboxylic acid], the “% Inhibition of ETA at 1 μM” value is reported as 89.9%. On to `COc1ccc(C2C(C(=O)O)C(c3ccc4c(c3)OCO4)CN2CC(=O)N(C)c2ccccc2)cc1` (stereo not drawn) [Example 45, trans,trans-2-(4-Methoxyphenyl)-4-(1,3-benzodioxol-5-yl)-1-(N-methyl-N-phenylaminocarbonylmethyl)-pyrrolidine-3-carboxylic acid], for which the “% Inhibition of ETA at 1 μM” value was 85.4%. On to `CCCCN(CCCC)C(=O)C(C)N1CC(c2ccc3c(c2)OCO3)C(C(=O)O)C1c1ccc(OC)cc1` (racemic) [Example 91C, trans,trans-2-(4-Methoxyphenyl)-4-(1,3-benzodioxol-5-yl)-1-((N,N-dibutylamino)carbonyl-1-(RS)-ethyl)pyrrolidine-3-carboxylic acid], for which the “% Inhibition of ETA at 1 μM” value turned out to be 91.6%.

Take `CCCCOCCN1CC(c2ccc(OC)cc2)C(C(=O)O)C1c1ccc2c(c1)OCO2` (stereo not drawn) [Example 27, trans,trans-2-(1,3-Benzodioxol-5-yl)-4-(4-methoxyphenyl)-1-(butoxyethyl)-pyrrolidine-3-carboxylic acid]: the “% Inhibition of ETA at 1 μM” value is recorded as 61.2%. On to `C=C(C)CS(=O)(=O)N(CCC)CCN1CC(c2ccc3c(c2)OCO3)C(C(=O)O)C1c1ccc(OC)cc1` (stereo not drawn) [Example 301, trans,trans-2-(4-Methoxyphenyl)-4-(1,3-benzodioxol-5-yl)-1-(2-(N-propyl-N-(2-methyl-2-propenesulfonyl)amino)ethyl)-pyrrolidine-3-carboxylic acid], for which the “% Inhibition of ETA at 1 μM” value was found to be 96.7%.

`CCCCCS(=O)(=O)N(CC)CCN1CC(c2ccc3c(c2)OCO3)C(C(=O)O)C1c1ccc(OC)cc1` (stereo not drawn) [Example 310, trans,trans-2-(4-Methoxyphenyl)-4-(1,3-benzodioxol-5-yl)-1-(2-(N-ethyl-N-n-pentanesulfonylamino)ethyl)-pyrrolidine-3-carboxylic acid]: the “% Inhibition of ETA at 1 μM” value was found to be 87.1%.
